{"source": "patent US12668803B2", "about": "“Glypican-3-specific modified aptamer and use thereof” (APTAMER SCIENCES INC., priority 2019, dated 2026)", "key": {"Huh-7 cells": {"system": "Huh-7 cells", "experiment": "Cellular internalization analysis (microscopy, lysotracker/DAPI)", "assay_type": "cell-based", "experimental": "5 aptamer libraries prepared by truncating the 12-10 aptamer at various lengths [12-12 (35-mer), 12-11 (29-mer), 12-13 (24-mer), 12-14 (23-mer), and 12-15 (18-mer)] were subjected to cellular internalization analysis. In detail, a 6-well plate was prepared, and a round cover glass was placed in the 6-well plate. Huh-7 cells were cultured in the 6-well plate according to the method of Example 1-3. 5 μM of the aptamer stock was mixed with 5×SB18 buffer to prepare the aptamer at a concentration of 4 μM, and heated at 95° C. for 5 min, and then cooled at room temperature for 15 min or more. The next day, the medium was removed from the cultured cells, and a serum-free medium was added thereto, and cultured under conditions of 37° C. and 5% CO2 for 1 hr. The serum-free medium was removed, and then the cells were washed with 2 mL of 1×PBS. KRPH buffer was added, and cultured under conditions of 37° C. and 5% CO2 for 1 hr. 4 μM aptamer was diluted to 25 nM, and then cultured under conditions of 37° C. and 5% CO2 for 1 hr or 4 hr. Washing was repeated three times with 2 mL of 1×PBS. Washing was performed in a shaker at room temperature for 10 min while blocking the light. Thereafter, the cells were fixed by treatment with 4% paraformaldehyde at 4° C. for 10 min. Washing was repeated three times with 2 mL of 1×PBS. A permeabilization solution (0.2% Triton X-100 in 1×PBS) was added, followed by incubation at room temperature for 15 min. Washing was repeated three times with 2 mL of 1×PBS. A blocking solution (3% BSA, 1×PBS) was added, followed by incubation under conditions of 37° C. and 5% CO2 for 20 min. Washing was performed once with 2 mL of 1×PBS. Treatment with a blocking solution containing 150 nM lysotracker was performed, followed by incubation under conditions of 37° C. and 5% CO2 for 1 hr. Washing was repeated three times with 2 mL of 1×PBS, and staining with 4′,6-diamidino-2-phenylindole (DAPI) was performed. The cover glass was carefully removed and […]. […]"}, "HepG2": {"system": "HepG2", "experiment": "Cytotoxicity (CCK-8) of 12-12 G(3)", "assay_type": "cell-based", "experimental": "(§1) In detail, HepG2, Hep3B, and A431 cells (ATCC, Rockville, MD, USA) were each seeded in a 96-well plate at a density of 1×10^4/mL and cultured using a DMEM (Gibco, Grand Island, NY, USA) medium containing 10% FBS (Gibco, Grand Island, NY, USA) and 1% antibiotics (penicillin/streptomycin) under conditions of 5% CO2 and 37° C. The next day, the aptamer stock (100 μM) was mixed with 5×SB18 buffer to prepare the stock at a concentration of 80 μM, and heated at 95° C. for 5 min, and then cooled at room temperature for 15 min or more. The medium was removed from the cultured cells, and 100 μL of a serum-free medium was added thereto, and cultured under conditions of 37° C. and 5% CO2 for 1 hr. The serum-free medium was removed, and then the cells were washed with 100 μL of 1×PBS. 100 μL of KRPH buffer was added, and cultured under conditions of 37° C. and 5% CO2 for 1 hr. The aptamer was diluted with KRPH buffer to 2-fold of the desired concentration, and added to a 96-well plate at 1× concentration, and cultured under conditions of 37° C. and 5% CO2 for 4 hr. After treatment with the aptamer, the KRPH buffer was removed, and then 100 μL of culture medium was added and cultured under conditions of 37° C. and 5% CO2 for 6 days. 6 days later, 10 μL of a CCK-8 kit solution was added to each well, and then cultured under conditions of 37° C. and 5% CO2 for 3 hr. Cell death levels were examined at […] using a microplate reader."}, "[1]": {"system": "squamous cell carcinoma cell A431", "experiment": "Cytotoxicity (CCK-8) of 12-12 G(3)", "assay_type": "cell-based", "experimental": "as §1"}, "[2]": {"experiment": "Serum stability analysis (urea PAGE)", "assay_type": "in vitro ADME, human", "conditions": "100% human serum, 37° C., FIG. 28", "experimental": "To examine whether 12-12, combi 5 aptamer, combi 4 and combi 5 modified aptamers bound with three or five gemcitabines are stable in the human serum, serum stability was analyzed. In detail, 10 μL of […] was added to 100% human serum, followed by incubation at 37° C. for 0 hr, 1 hr, 3 hr, 6 hr, 12 hr, and 24 hr. After incubation, 5 μL of […] was added, and distilled water was added to a volume of 250 μL. 250 μL of phenol:chloroform:isoamyl alcohol (25:24:1) was added in the equal volume, followed by stirring. Each sample was centrifuged at 16000×g for 10 min. The supernatant was transferred to a new tube, and completely dried. The resultant was diluted with 5× sample buffer and distilled water, and boiled at 95° C. for 5 min, and cooled. The sample was separated by urea PAGE (Polyacrylamide gel Electrophoresis) at 220 V for 25 min, and then stained with SYBR gold and examined using a Gel Doc™ EZ system."}, "Huh 7 cells": {"system": "Huh 7 cells", "experiment": "Cell binding analysis of Cy5-labeled aptamers (FACS)", "assay_type": "cell-based", "conditions": "25 nM aptamer, 12-10 and truncated aptamers, FIG. 6", "experimental": "The 12-10 aptamer and 5 aptamer libraries prepared by truncating the 12-10 aptamer at various lengths [12-10 (40-mer), 12-12 (35-mer), 12-11 (29-mer), 12-13 (24-mer), 12-14 (23-mer), 12-15 (18-mer)] were subjected to cell binding analysis. Each aptamer sequence was labeled with Cy5 at the 5′ end thereof according to the method of Example 1-1. Huh 7 cells (ATCC, Rockville, MD, USA) were seeded at a density of 2×10^6/mL in a 100 mm^2 culture plate, and cultured using a DMEM medium (Gibco, Grand Island, NY, USA) containing 10% FBS (Gibco, Grand Island, NY, USA) and 1% antibiotics (penicillin/streptomycin) under conditions of 5% CO2 and 37° C. 5 μM of the aptamer stock was mixed with 5×SB18 buffer to prepare the aptamer at a concentration of 4 μM, and heated at 95° C. for 5 min, and then cooled at room temperature for 15 min or more. 4 μM of the aptamer was diluted with KRPH buffer (20 mM HEPES, 5 mM KH2PO4, 1 mM MgSO4, 1 mM CaCl2, 136 mM NaCl, 4.7 mM KCl, pH 7.4) at a concentration of 25 nM. The culture medium was removed from the cultured cells, and 4 mL of phosphate-buffered saline (PBS) was added thereto, followed by washing, and then 4 mL of PBS was removed. 4 mL of cold PBS or warm PBS was added, and cells were scraped using a scraper, and collected in tubes, followed by pipetting. The cells were divided and added to fluorescence-activated cell sorting (FAC) tubes according to the number of samples, followed by centrifugation at 4° C. and 2000 rpm for 4 min. After removing the supernatant, each 500 μL of 25 nM aptamer and control (31-08 (40-mer) aptamer) were added to […] of KRPH buffer, followed by pipetting. The tube was covered with foil to block the light, followed by incubation at 4° C. for 30 min. After incubation, centrifugation was performed at 4° C. and 2000 rpm for 4 min, and the supernatant was removed. 2 mL of cold 1×PBS was added, washed, centrifuged at 4° C. and 2000 rpm for 4 min, and the supernatant was removed. This process was repeated three times. […] Cy5 was measured at […]. […]"}, "Hep3B": {"system": "Hep3B", "experiment": "Cellular internalization of chemically optimized aptamers (FIG. 17A)", "assay_type": "cell-based", "conditions": "combi 1 to combi 5, FIG. 17A"}, "[3]": {"system": "hepatoma specific cells expressing high levels of GPC3 (HepG2, Hep3B)", "experiment": "Cellular internalization of combi 6 to combi 10 (FIG. 17B)", "assay_type": "cell-based"}}}
{"substance": "12-12 G(3) (DNA GNGAANGCGNNGAANNANGNSSSNNCAGNCANCAC; three gemcitabines, BzdU and 3' inverted dT, positions not given here)", "values": [{"measurement": "cellular internalization over time", "setting": "Huh-7 cells; 1 hr, 2 hr, and 4 hr after the start of internalization, FIG. 11", "result": "most excellent cellular internalization"}, {"measurement": "cellular internalization", "setting": "Huh-7 cells; vs 12-12 and scrambled 12-12, FIG. 10", "result": "most excellent cellular internalization"}, {"measurement": "HepG2-killing effects", "setting": "HepG2; 10 nM to 1 μM, vs 12-12 or 30 nM to 3 μM gemcitabine, FIG. 12", "result": "excellent HepG2-killing effects"}, {"measurement": "HepG2-killing effects", "setting": "HepG2; 31.75 nM to 2 μM, vs same concentrations of 12-12 or gemcitabine, FIG. 13", "result": "excellent HepG2-killing effects"}, {"measurement": "cell-killing effects on A431", "setting": "[1]; 10 nM to 1 μM, FIG. 12", "result": "no cell-killing effects"}, {"measurement": "cell-killing effects on A431", "setting": "[1]; 31.75 nM to 2 μM, FIG. 13", "result": "no cell-killing effects"}]}
{"substance": "12-12: SEQ ID NO: 6, 35-mer truncated from 2428-12-10, idT at 3′ end (GNGAANGCGNNGAANNANGNCCCNNCAGNCANCAC; modified base n undefined, 3' idT per name, further chemistry not given here)", "values": [{"measurement": "half-life in the human serum", "setting": "[2]", "result": 6, "unit": "h"}, {"measurement": "cellular internalization", "setting": "Huh-7 cells; 25 nM, truncated aptamers, FIG. 7", "result": "most excellent cellular internalization"}, {"measurement": "cell binding ability", "setting": "Huh 7 cells", "result": "most excellent cell binding ability"}]}
{"substance": "Combi 4: SEQ ID NO: 13, chemically optimized 12-12 aptamer (G_{Me}nG_{Me}A_{F}A_{F}nGCGnnG_{F}A_{F}A_{F}nnA_{F}nGYC_{F}C_{F}C_{F}nnCAG_{Me}nCAnCAMC_{F}; 2'-F and 2'-OMe units, modified bases n, Y, M undefined, 3' idT, as printed in the source, key not given here)", "values": [{"measurement": "Hep3B cellular internalization", "setting": "Hep3B", "result": "excellent cellular internalization"}]}
{"substance": "Combi 8: SEQ ID NO: 17, chemically optimized 12-12 aptamer (G_{Me}nG_{Me}A_{F}A_{F}nGCGnnG_{F}A_{F}A_{Me}nnA_{Me}nWnC_{F}C_{F}C_{F}nnCAG_{Me}nCAnC_{F}A_{Me}C_{F}; 2'-F and 2'-OMe units, modified bases n, W undefined, 3' idT, as printed in the source, key not given here)", "values": [{"measurement": "cellular internalization", "setting": "[3]", "result": "highest cellular internalization"}]}
{"substance": "Combi 9: SEQ ID NO: 18, chemically optimized 12-12 aptamer (G_{Me}nG_{Me}A_{F}A_{F}nGCGnnG,A_{F}AnnAnGnC_{F}C_{F}C_{F}nnCAG_{Me}nCAnCrAyCr; 2'-F and 2'-OMe units, modified base n undefined, 3' idT, as printed in the source, key not given here)", "values": [{"measurement": "cellular internalization", "setting": "[3]", "result": "highest cellular internalization"}]}
